The source made the active and inactive calls. The rule behind the calls is not given here.
Experiments:
[1] = system: HT-29; test: Antiproliferative activity against human HT-29 cells cultured as 3D spheroids assessed as inhibition of spheroid formation measured after 48 hrs by MTT assay; type: functional, cell-based; conditions: HT-29, 48 h
[2] = system: KB; test: Cytotoxicity against human vincristine-sensitive KB cells assessed as cell growth inhibition measured after 72 hrs by MTT assay; type: functional, cell-based
[3] = system: KB; test: Cytotoxicity against human vincristine-resistant KB cells assessed as cell growth inhibition measured after 72 hrs by MTT assay; type: functional, cell-based
[4] = system: HT-29; test: Induction of apoptosis in human HT-29 cells assessed as early apoptotic cells at 2.7 uM measured after 72 hrs by FITC-annexin V/propidium iodide- double staining based flow cytometry analysis (Rvb= 12.8%); type: functional
[5] = system: HT-29; test: Anticlonogenic activity against human HT-29 cells assessed as inhibition of colony formation measured after 6 days by methylene blue staining based assay; type: functional, cell-based; conditions: dose 1.35-2.7 µM, time 6.0 day
[6] = system: HT-29; test: Cytotoxicity against human HT-29 cells assessed as cell growth inhibition measured after 48 hrs by MTT assay; type: functional, cell-based; conditions: HT-29, 48 h
[7] = system: HT-29; test: Antiproliferative activity in human HT-29 cells cultured as 3D spheroids assessed as reduction in 3D structure of spheroid morphology at IC50 measured after 48 hrs; type: functional, cell-based
[8] = system: HT-29; test: Antiproliferative activity in human HT-29 cells cultured as 3D spheroids assessed as gradual disaggregation of peripheral cells at IC50 measured after 48 hrs; type: functional, cell-based
[9] = system: HT-29; test: Induction of apoptosis in human HT-29 cells assessed as late apoptotic cells at 2.7 uM measured after 72 hrs by FITC-annexin V/propidium iodide- double staining based flow cytometry analysis (Rvb= 3.0%); type: functional
[10] = system: HT-29; test: Induction of cell cycle arrest in human HT-29 cells assessed as accumulation of cells at G2 phase at 2.7 uM measured after 24 hrs by propidium iodide staining based flow cytometry analysis (Rvb= 9.09%); type: functional
[11] = system: HT-29; test: Induction of apoptosis in human HT-29 cells assessed as early apoptotic cells at 2.7 uM measured after 48 hrs by FITC-annexin V/propidium iodide- double staining based flow cytometry analysis (Rvb= 12.8%); type: functional
[12] = system: HT-29; test: Induction of cell cycle arrest in human HT-29 cells assessed as accumulation of cells at G2 phase at 2.7 uM measured after 72 hrs by propidium iodide staining based flow cytometry analysis (Rvb= 9.09%); type: functional
[13] = system: HT-29; test: Induction of mitochondrial membrane potential loss in human HT-29 cells assessed as healthy cells at 2.7 uM measured after 72 hrs by JC-1 staining based flow cytometry analysis (Rvb= 91.4%); type: functional
[14] = Selectivity index, ratio of IC50 for human CCD-18Co cells to IC50 for human HT-29 cells assessed as cell growth inhibition measured after 48 hrs by MTT assay
[15] = system: HT-29; test: Induction of mitochondrial membrane potential loss in human HT-29 cells assessed as healthy cells at 2.7 uM measured after 48 hrs by JC-1 staining based flow cytometry analysis (Rvb= 91.4%); type: functional
[16] = system: CCD-18Co; test: Cytotoxicity against human CCD-18Co cells assessed as cell growth inhibition measured after 48 hrs by MTT assay; type: cell-based
[17] = system: HT-29; test: Induction of apoptosis in human HT-29 cells assessed as viable cells at 2.7 uM measured after 24 hrs by FITC-annexin V/propidium iodide- double staining based flow cytometry analysis (Rvb= 83.8%); type: functional; conditions: read-out: Activity
[18] = system: HT-29; test: Induction of apoptosis in human HT-29 cells assessed as activation of caspase-3 at 2.7 uM measured after 72 hrs by flow cytometry analysis (Rvb= 2.2%); type: functional
[19] = system: HT-29; test: Induction of cell cycle arrest in human HT-29 cells assessed as accumulation of cells at S phase at 2.7 uM measured after 24 hrs by propidium iodide staining based flow cytometry analysis (Rvb= 35.52%); type: functional
[20] = molecular target: Tubulin (Homo sapiens) (UniProt P68371+Q9H4B7+P0DPH7+P68366+Q13509+Q71U36+P04350+Q3ZCM7+P07437+P68363+Q9BQE3+Q6PEY2+Q13885+Q9BVA1+Q9BUF5); test: Induction of tubulin polymerization in human HT-29 cells assessed as stabilization of microtubules at 10 uM by spectrophotometric analysis; type: cell-based
[21] = system: HT-29; test: Induction of apoptosis in human HT-29 cells assessed as late apoptotic cells at 2.7 uM measured after 24 hrs by FITC-annexin V/propidium iodide- double staining based flow cytometry analysis (Rvb= 3.0%); type: functional
[22] = system: HT-29; test: Induction of apoptosis in human HT-29 cells assessed as early apoptotic cells at 2.7 uM measured after 24 hrs by FITC-annexin V/propidium iodide- double staining based flow cytometry analysis (Rvb= 12.8%); type: functional
[23] = system: HT-29; test: Induction of apoptosis in human HT-29 cells assessed as viable cells at 2.7 uM measured after 72 hrs by FITC-annexin V/propidium iodide- double staining based flow cytometry analysis (Rvb= 83.8%); type: functional; conditions: read-out: Activity
[24] = system: HT-29; test: Induction of mitochondrial membrane potential loss in human HT-29 cells assessed as apoptotic cells at 2.7 uM measured after 72 hrs by JC-1 staining based flow cytometry analysis (Rvb= 8.6%); type: functional
[25] = system: HT-29; test: Induction of apoptosis in human HT-29 cells assessed as activation of caspase-3 at 2.7 uM measured after 48 hrs by flow cytometry analysis (Rvb= 2.2%); type: functional
[26] = system: HT-29; test: Induction of mitochondrial membrane potential loss in human HT-29 cells assessed as apoptotic cells at 2.7 uM measured after 24 hrs by JC-1 staining based flow cytometry analysis (Rvb= 8.6%); type: functional
[27] = system: HT-29; test: Induction of apoptosis in human HT-29 cells assessed as late apoptotic cells at 2.7 uM measured after 48 hrs by FITC-annexin V/propidium iodide- double staining based flow cytometry analysis (Rvb= 3.0%); type: functional
[28] = system: HT-29; test: Induction of cell cycle arrest in human HT-29 cells assessed as accumulation of cells at G2 phase at 2.7 uM measured after 48 hrs by propidium iodide staining based flow cytometry analysis (Rvb= 9.09%); type: functional
[29] = system: HT-29; test: Induction of apoptosis in human HT-29 cells assessed as activation of caspase-3 at 2.7 uM measured after 24 hrs by flow cytometry analysis (Rvb= 2.2%); type: functional
[30] = system: HT-29; test: Induction of apoptosis in human HT-29 cells assessed as dead cells at 2.7 uM measured after 24 hrs by FITC-annexin V/propidium iodide- double staining based flow cytometry analysis (Rvb= 0.4%); type: functional
[31] = system: HT-29; test: Induction of cell cycle arrest in human HT-29 cells assessed as accumulation of cells at G1 phase at 2.7 uM measured after 48 hrs by propidium iodide staining based flow cytometry analysis (Rvb= 55.39%); type: functional
[32] = system: HT-29; test: Induction of apoptosis in human HT-29 cells assessed as dead cells at 2.7 uM measured after 48 hrs by FITC-annexin V/propidium iodide- double staining based flow cytometry analysis (Rvb= 0.4%); type: functional
[33] = system: HT-29; test: Induction of apoptosis in human HT-29 cells assessed as dead cells at 2.7 uM measured after 72 hrs by FITC-annexin V/propidium iodide- double staining based flow cytometry analysis (Rvb= 0.4%); type: functional
[34] = system: HT-29; test: Induction of cell cycle arrest in human HT-29 cells assessed as accumulation of cells at S phase at 2.7 uM measured after 48 hrs by propidium iodide staining based flow cytometry analysis (Rvb= 35.52%); type: functional
[35] = system: HT-29; test: Induction of mitochondrial membrane potential loss in human HT-29 cells assessed as apoptotic cells at 2.7 uM measured after 48 hrs by JC-1 staining based flow cytometry analysis (Rvb= 8.6%); type: functional
[36] = system: HT-29; test: Induction of apoptosis in human HT-29 cells assessed as viable cells at 2.7 uM measured after 48 hrs by FITC-annexin V/propidium iodide- double staining based flow cytometry analysis (Rvb= 83.8%); type: functional; conditions: read-out: Activity
[37] = system: HT-29; test: Induction of cell cycle arrest in human HT-29 cells assessed as accumulation of cells at G1 phase at 2.7 uM measured after 24 hrs by propidium iodide staining based flow cytometry analysis (Rvb= 55.39%); type: functional
[38] = system: HT-29; test: Induction of mitochondrial membrane potential loss in human HT-29 cells assessed as healthy cells at 2.7 uM measured after 24 hrs by JC-1 staining based flow cytometry analysis (Rvb= 91.4%); type: functional
[39] = system: HT-29; test: Induction of cell cycle arrest in human HT-29 cells assessed as accumulation of cells at S phase at 2.7 uM measured after 72 hrs by propidium iodide staining based flow cytometry analysis (Rvb= 35.52%); type: functional
[40] = system: HT-29; test: Induction of cell cycle arrest in human HT-29 cells assessed as accumulation of cells at G1 phase at 2.7 uM measured after 72 hrs by propidium iodide staining based flow cytometry analysis (Rvb= 55.39%); type: functional
[41] = system: HT-29; test: Cytotoxicity against human HT-29 cells assessed as cell growth inhibition measured after 72 hrs by MTT assay; type: functional, cell-based; conditions: HT-29, 72 h
[42] = system: CCD-18Co; test: Cytotoxicity against human CCD-18Co cells assessed as cell growth inhibition measured after 72 hrs by MTT assay; type: cell-based
[43] = system: A549; test: Cytotoxicity against human A549 cells assessed as cell growth inhibition measured after 72 hrs by MTT assay; type: functional, cell-based; conditions: A549, 72 h
[44] = system: PC-3; test: Cytotoxicity against human PC-3 cells assessed as cell growth inhibition measured after 72 hrs by MTT assay; type: functional, cell-based; conditions: PC-3, 72 h
[45] = system: MDA-MB-231; test: Cytotoxicity against human MDA-MB-231 cells assessed as cell growth inhibition measured after 72 hrs by MTT assay; type: functional, cell-based; conditions: MDA-MB-231, 72 h
[46] = system: HCT-116; test: Cytotoxicity against human HCT-116 cells assessed as cell growth inhibition measured after 72 hrs by MTT assay; type: functional, cell-based; conditions: HCT-116, 72 h
[47] = system: MCF7; test: Cytotoxicity against human MCF7 cells assessed as cell growth inhibition measured after 72 hrs by MTT assay; type: functional, cell-based; conditions: MCF7, 72 h

SMILES: O=c1[nH]cc(F)c(=O)[nH]1 [FLUOROURACIL]
- IC50 [1]: 25.9 µM

SMILES: CC[C@]1(O)C[C@H]2CN(CCc3c([nH]c4ccccc34)[C@@](C(=O)OC)(c3cc4c(cc3OC)N(C=O)[C@H]3[C@@](O)(C(=O)OC)[C@H](OC(C)=O)[C@]5(CC)C=CCN6CC[C@]43[C@@H]65)C2)C1 [VINCRISTINE]
- IC50 [2]: 0.0008 µM
- IC50 [3]: 0.8 µM

SMILES: C/C=C1/CN2CC[C@]34c5cc([C@@H](C)[C@H]6[C@@H]7C[C@H]8c9c(c%10ccccc%10n9C)C[C@@H]([C@@H]7CO[C@@H]6O)N8C)c(OC)cc5N(C)[C@H]3[C@@H]2C[C@@H]1C4C(=O)OC (stereo partly drawn)
- Activity [4]: 49.1%
- Activity [5]: Dose-Dependent Effect
- IC50 [6]: 2.5 µM
- Activity [7]: Active
- Activity [8]: Active
- Activity [9]: 25.6%
- Activity [10]: 9.84%
- Activity [11]: 28.2%
- IC50 [1]: 10 µM
- Activity [12]: 9.44%
- Activity [13]: 35.8%
- Ratio IC50 [14]: 4.88
- Activity [15]: 68.8%
- IC50 [16]: 12.2 µM
- viability at 2.7 µM [17]: 76.2%
- Activity [18]: 50.2%
- Activity [19]: 34.12%
- Activity [20]: Active
- Activity [21]: 9.8%
- Activity [22]: 13.8%
- viability at 2.7 µM [23]: 25.2%
- Activity [24]: 64.2%
- Activity [25]: 8.2%
- Activity [26]: 11.3%
- Activity [27]: 9.9%
- Activity [28]: 9.01%
- Activity [29]: 1.7%
- Activity [30]: 0.2%
- Activity [31]: 67.84%
- Activity [32]: 0.2%
- Activity [33]: 0.2%
- Activity [34]: 23.15%
- Activity [35]: 31.2%
- viability at 2.7 µM [36]: 61.8%
- Activity [37]: 56.04%
- Activity [38]: 88.7%
- Activity [39]: 13.77%
- Activity [40]: 76.79%

SMILES: C/C=C1/CN2[C@H]3C[C@@H]1[C@@H](CO)[C@@H]2Cc1c3n(C)c2ccc3c(c12)[C@H](C)[C@@H]1[C@@H](OC[C@@H]2[C@H]1C[C@H]1c4c(c5ccccc5n4C)C[C@@H]2N1C)O3
- Activity [4]: 40.3%
- Activity [5]: Dose-Dependent Effect
- IC50 [6]: 2.7 µM
- Activity [7]: Active
- Activity [8]: Active
- Activity [9]: 41.6%
- Activity [10]: 14.56%
- IC50 [2]: 5 µM
- Activity [11]: 32%
- IC50 [41]: 0.2 µM
- IC50 [1]: 3.8 µM
- Activity [12]: 7.67%
- IC50 [42]: > 10 µM
- Activity [13]: 36.6%
- Ratio IC50 [14]: 5.32
- Activity [15]: 63.9%
- IC50 [16]: 14.1 µM
- viability at 2.7 µM [17]: 77.6%
- IC50 [43]: 2.1 µM
- Activity [18]: 67.8%
- Activity [19]: 19.88%
- IC50 [44]: 6.1 µM
- Activity [20]: Active
- Activity [21]: 12.8%
- Activity [22]: 8.7%
- viability at 2.7 µM [23]: 17.7%
- IC50 [45]: 5.9 µM
- Activity [24]: 63.4%
- IC50 [3]: 7.6 µM
- Activity [25]: 26%
- Activity [26]: 9.1%
- Activity [27]: 7.1%
- Activity [28]: 12.12%
- Activity [29]: 1.9%
- IC50 [46]: 4.7 µM
- Activity [30]: 0.9%
- Activity [31]: 66.11%
- Activity [32]: 0.1%
- Activity [33]: 0.4%
- IC50 [47]: > 10 µM
- Activity [34]: 21.76%
- Activity [35]: 36.1%
- viability at 2.7 µM [36]: 60.8%
- Activity [37]: 65.56%
- Activity [38]: 90.9%
- Activity [39]: 24.39%
- Activity [40]: 67.94%
